The values below come from US10941157B2, “Pesticidal compositions and uses thereof” (Gilead Apollo, LLC, priority 2015, dated 2021).

Values after ≈ are worked out from the molar mass of the structure shown.

Format in all cases: cell-based
Experiment [1] relates to Botrtyis cinerea (Bc). Briefly: In vitro pathogen growth inhibition assay, Bc. The settings on record: 48 h, ≥90% inhibition; 48 hours vs 2% DMSO control; read-out: Compound Concentration (ppm) sufficient for ≥90% inhibition of growth, Bc. Put shortly:
(§1)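 Spores in 17% V8 liquid medium, or 1.5 mm Rs mycelial plugs in ¼ PDB, incubated with compound; final concentration checked by OD600 for precipitation. OD readings at 24 and 48 h, blank-subtracted, plus visual ratings; value is concentration giving ≥90% growth inhibition.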

The test system of experiment [2] is Collectotrichum graminicola (Cg). Kind of experiment: In vitro pathogen growth inhibition assay, Cg. Conditions: 48 h, ≥90% inhibition; 48 hours vs 2% DMSO control; read-out: Compound Concentration (ppm) sufficient for ≥90% inhibition of growth, Cg. Put shortly:
as §1

Experiment [3] deals with Diplodia maydis (Dm). Briefly: In vitro pathogen growth inhibition assay, Dm. Conditions: Stenocarpella maydis, 48 h, ≥90% inhibition; 48 hours vs 2% DMSO control; read-out: Compound Concentration (ppm) sufficient for ≥90% inhibition of growth, Dm. The procedure, abridged: (§2)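 Spores of Dm, Fv and Pc were diluted in 17% V8 liquid medium; Rs used 1.5 mm mycelial plugs in ¼ PDB. Compounds from 2.5 mg/ml DMSO stocks were combined with inoculum, growth was read by OD600 at 24 and 48 h with blank subtraction, and the reported value is the concentration giving ≥90% inhibition.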

In experiment [4] the test system is Fusarium moniliforme (Fm). Kind of experiment: In vitro pathogen growth inhibition assay, Fm. The settings on record: Fusarium verticillioides; ≥90% inhibition; 48 hours vs 2% DMSO control; read-out: Compound Concentration (ppm) sufficient for ≥90% inhibition of growth, Fm. Put shortly: as §1
The test system of experiment [5] is Fusarium virguliforme (Fv). Briefly: In vitro pathogen growth inhibition assay, Fv. The settings on record: ≥90% inhibition, 48 hours vs 2% DMSO control, read-out: Compound Concentration (ppm) sufficient for ≥90% inhibition of growth, Fv. Put shortly: as §2
The test system of experiment [6] is Phytophthora capsici (Pc). Briefly: In vitro pathogen growth inhibition assay, Pc. Conditions: 48 h, ≥90% inhibition, 48 hours vs 2% DMSO control, read-out: Compound Concentration (ppm) sufficient for ≥90% inhibition of growth, Pc. The procedure, abridged:
as §2

Experiment [7] has as its system Rhizoctonia solani (Rs). Kind of experiment: In vitro pathogen growth inhibition assay, Rs (mycelial plugs). Conditions: Rhizoctonia solani, 48 h, ≥90% inhibition; mycelial plugs; 48 hours vs 2% DMSO control; read-out: Compound Concentration (ppm) sufficient for ≥90% inhibition of growth, Rs. Put shortly:
as §2

The subject of experiment [8] is Septoria tritici (St). Kind of experiment: In vitro pathogen growth inhibition assay, St. Conditions: Zymoseptoria tritici, 48 h, ≥90% inhibition; 48 hours vs 2% DMSO control; read-out: Compound Concentration (ppm) sufficient for ≥90% inhibition of growth, St. The procedure, abridged:
as §1

Turning to `COc1ccccc1[C@H](Cn1c(=O)n(C(C)(C)C(=O)N2CCCCC2)c(=O)c2c(C)c(-n3cccn3)sc21)OC1CCOCC1` [Compound I-117], the IC90 in experiment [1] is 2 µg/mL (≈ 3.15 µM); in experiment [2] it was 10 µg/mL (≈ 15.7 µM); in experiment [3], 10 µg/mL (≈ 15.7 µM); in experiment [4] it was 0.4 µg/mL (≈ 0.629 µM); in experiment [5], 10 µg/mL (≈ 15.7 µM); in experiment [6], over 50 µg/mL. The figures for the IC90 in experiment [7] and in experiment [8] were 10 µg/mL (≈ 15.7 µM) and over 50 µg/mL, respectively.

Regarding `COc1ccccc1[C@H](Cn1c(=O)n(C(C)(C)C(=O)NC(C)C)c(=O)c2c(C)c(-n3cccn3)sc21)OC(C)C` [Compound I-118], the IC90 in experiment [1] is 2 µg/mL (≈ 3.52 µM); in experiment [2], 10 µg/mL (≈ 17.6 µM); in experiment [3], 2 µg/mL (≈ 3.52 µM); in experiment [4], 0.4 µg/mL (≈ 0.705 µM); in experiment [5], 0.4 µg/mL (≈ 0.705 µM); in experiment [6] it was over 50 µg/mL. Moreover, the figures for the IC90 in experiment [7] and in experiment [8] were 50 µg/mL (≈ 88.1 µM) and at least 50 µg/mL, respectively.

For `COc1ccccc1[C@H](Cn1c(=O)n(C(C)(C)C(=O)NC(C)C)c(=O)c2c(C)c(-n3cccn3)sc21)OCC(C)C` [Compound I-119], the IC90 in experiment [1] was 2 µg/mL (≈ 3.44 µM); in experiment [2] it was 10 µg/mL (≈ 17.2 µM); in experiment [3], at least 2 µg/mL; in experiment [4], 0.4 µg/mL (≈ 0.688 µM); in experiment [5], 10 µg/mL (≈ 17.2 µM); in experiment [6] it was over 50 µg/mL. The IC90 was 2 µg/mL (≈ 3.44 µM) in experiment [7] and over 50 µg/mL in experiment [8].

In the case of `COc1ccccc1[C@H](Cn1c(=O)n(C(C)(C)C(=O)N2CCCC2)c(=O)c2c(C)c(-n3cccn3)sc21)OCC(C)C` [Compound I-120], the IC90 in experiment [1] is 2 µg/mL (≈ 3.37 µM); in experiment [2], 2 µg/mL (≈ 3.37 µM); in experiment [3], 2 µg/mL (≈ 3.37 µM); in experiment [4] it was 0.4 µg/mL (≈ 0.674 µM); in experiment [5], 10 µg/mL (≈ 16.8 µM); in experiment [6] it was over 50 µg/mL. Besides, the figures for the IC90 in experiment [7] and in experiment [8] were 2 µg/mL (≈ 3.37 µM) and over 50 µg/mL, respectively.

Take `COc1ccccc1[C@H](Cn1c(=O)n(C(C)(C)C(=O)N2CCCCC2)c(=O)c2c(C)c(-n3cccn3)sc21)OCC(C)C` [Compound I-121]: the IC90 is 2 µg/mL (≈ 3.29 µM) in experiment [1]; 10 µg/mL (≈ 16.5 µM) in experiment [2]; at least 2 µg/mL in experiment [3]; 0.4 µg/mL (≈ 0.658 µM) in experiment [4]; over 50 µg/mL in experiment [5]; over 50 µg/mL in experiment [6]. The IC90 in experiment [7] is 50 µg/mL (≈ 82.3 µM); in experiment [8], over 50 µg/mL.

In the case of `COc1ccc(F)cc1[C@H](Cn1c(=O)n(C(C)(C)C(=O)N2CCCC2)c(=O)c2c(C)c(-n3cccn3)sc21)OC1CCC(=O)CC1` [Compound I-122], the IC90 is 2 µg/mL (≈ 3.07 µM) in experiment [1]; at least 2 µg/mL in experiment [2]; 10 µg/mL (≈ 15.3 µM) in experiment [3]; 0.4 µg/mL (≈ 0.614 µM) in experiment [4]; at least 2 µg/mL in experiment [5]; over 50 µg/mL in experiment [6]. For the same compound, the values for the IC90 in experiment [7] and in experiment [8] were 2 µg/mL (≈ 3.07 µM) and over 50 µg/mL, respectively.

Regarding `COc1ccc(F)cc1[C@H](Cn1c(=O)n(C(C)(C)C(=O)N2CCCC2)c(=O)c2c(C)c(-n3cccn3)sc21)O[C@H]1CC[C@@H](O)CC1` [Compound I-123], the IC90 in experiment [1] was 2 µg/mL (≈ 3.06 µM); in experiment [2], at least 10 µg/mL; in experiment [3] it was 10 µg/mL (≈ 15.3 µM); in experiment [4] it was 0.4 µg/mL (≈ 0.612 µM); in experiment [5] it was 2 µg/mL (≈ 3.06 µM); in experiment [6], over 50 µg/mL. In addition, the IC90 was 10 µg/mL (≈ 15.3 µM) in experiment [7] and over 50 µg/mL in experiment [8].

In the case of `COc1ccc(F)cc1[C@H](Cn1c(=O)n(C(C)(C)C(N)=O)c(=O)c2c(C)c(-n3nccn3)sc21)OC1CCC(=O)CC1` [Compound I-124], the IC90 in experiment [1] is at least 0.4 µg/mL; in experiment [2] it was 10 µg/mL (≈ 16.7 µM); in experiment [3], at least 2 µg/mL; in experiment [4] it was 0.4 µg/mL (≈ 0.668 µM); in experiment [5], 10 µg/mL (≈ 16.7 µM); in experiment [6], 50 µg/mL (≈ 83.5 µM). For the same compound, the results for the IC90 in experiment [7] and in experiment [8] were 2 µg/mL (≈ 3.34 µM) and over 50 µg/mL, respectively.

For `CCO[C@@H](Cn1c(=O)n(C(C)(C)C(=O)NC(C)C)c(=O)c2c(C)c(-n3cccn3)sc21)c1cc(F)ccc1OC` [Compound I-125], the IC90 in experiment [1] is 2 µg/mL (≈ 3.5 µM); in experiment [2] it was at least 2 µg/mL; in experiment [3], over 50 µg/mL; in experiment [4], 0.4 µg/mL (≈ 0.7 µM); in experiment [5] it was 0.4 µg/mL (≈ 0.7 µM); in experiment [6], over 50 µg/mL. In addition, the IC90 is at least 2 µg/mL in experiment [7] and over 50 µg/mL in experiment [8].

Regarding `COc1ccc(F)cc1[C@H](Cn1c(=O)n(C(C)C(=O)NC(C)C)c(=O)c2c(C)c(-n3cccn3)sc21)OC(C)C` (some centres unmarked) [Compound I-126], the IC90 in experiment [1] is 2 µg/mL (≈ 3.5 µM); in experiment [2] it was 2 µg/mL (≈ 3.5 µM); in experiment [3] it was 2 µg/mL (≈ 3.5 µM); in experiment [4], 0.4 µg/mL (≈ 0.7 µM); in experiment [5], 1.2 µg/mL (≈ 2.1 µM); in experiment [6], 50 µg/mL (≈ 87.5 µM). Besides, the IC90 in experiment [7] came out at 2 µg/mL (≈ 3.5 µM); in experiment [8], 50 µg/mL (≈ 87.5 µM).
